# Laboratory results: US11028072B2, “2,4-diamino-6-ethylpyrimidine derivatives with antimalarial activities against Plasmodium falciparum” (National Science and Technology Development Agency, priority 2015, dated 2021)
# Where two headings read alike, the source gives them in different places.
# What was measured:
# [1] = system: P. falciparum V1/S (N51I + C59R + S108 + I164L); assay: microbe, parasite or virus in culture; format: cell-based, Plasmodium falciparum; details: in vitro, quadruple mutant strain V1/S, read-out: IC50 P. falciparum V1/S
# Source text: (§1) In Vitro Antimalarial Activites Against P. falciparum and Cytotoxicity Towards Mammalian Cells (Vero Cells)
# [2] = system: P. falciparum TM4/8.2 (wild type); assay: microbe, parasite or virus in culture; format: cell-based, Plasmodium falciparum; details: read-out: IC50 P. falciparum TM4/8.2 (WT)
# Source text: as §1
# [3] = target: quadruple mutant N51I + C59R + S108N + I164L (QM) pfDHFR (Plasmodium falciparum, UniProt P13922, I164L/N51I); assay: Inhibition of quadruple mutant pfDHFR (Ki); format: biochemical
# Chain of quadruple mutant N51I + C59R + S108N + I164L (QM) pfDHFR (P13922 whole entry N51I/I164L): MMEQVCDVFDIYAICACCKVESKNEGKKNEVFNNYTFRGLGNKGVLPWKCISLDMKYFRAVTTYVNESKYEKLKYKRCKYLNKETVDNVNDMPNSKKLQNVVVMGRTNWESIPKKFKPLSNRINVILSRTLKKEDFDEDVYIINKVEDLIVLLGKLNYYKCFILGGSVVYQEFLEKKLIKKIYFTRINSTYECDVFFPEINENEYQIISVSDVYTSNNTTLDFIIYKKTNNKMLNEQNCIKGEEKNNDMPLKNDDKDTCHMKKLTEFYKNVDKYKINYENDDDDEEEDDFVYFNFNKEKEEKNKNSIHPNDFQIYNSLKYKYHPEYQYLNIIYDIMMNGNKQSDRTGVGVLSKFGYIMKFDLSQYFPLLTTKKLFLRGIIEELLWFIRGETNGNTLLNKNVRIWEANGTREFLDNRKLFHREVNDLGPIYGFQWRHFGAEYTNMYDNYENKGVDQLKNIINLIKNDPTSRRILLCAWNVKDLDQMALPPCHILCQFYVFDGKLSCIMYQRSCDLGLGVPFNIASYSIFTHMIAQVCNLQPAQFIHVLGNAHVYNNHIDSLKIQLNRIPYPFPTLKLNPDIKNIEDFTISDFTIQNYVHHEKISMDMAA
# Protocol: (§2) The synthesized 2,4-diamino-6-ethylpyrimdine derivatives as the hydrochloride salts were tested for the activities against Plasmodium falciparum (P. falciparum) according to the standard methods. These include the inhibition of dihydrofolate reductase (DHFR) enzymes of P. falciparum including, wild type (WT) and quadruple mutants (N51IC59RS108NI164L) (QM). The inhibition was expressed as inhibition constants (Ki) in nano molar (nM).
# [4] = target: T1, Human dihydrofolate reductase (hDHFR) (Homo sapiens, UniProt P00374); assay: Inhibition of human dihydrofolate reductase (Ki); format: biochemical; details: human DHFR; hydrochloride salts
# T1 sequence (P00374 1-187): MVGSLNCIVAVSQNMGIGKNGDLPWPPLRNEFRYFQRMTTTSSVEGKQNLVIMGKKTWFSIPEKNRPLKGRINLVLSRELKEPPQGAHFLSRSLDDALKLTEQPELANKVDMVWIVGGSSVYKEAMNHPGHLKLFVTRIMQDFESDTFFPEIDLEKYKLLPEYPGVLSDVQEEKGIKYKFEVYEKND
# in vitro = details: African green monkey
# Source text: as §1
# wild type (WT) pfDHFR = wild type (WT) pfDHFR (Plasmodium falciparum, UniProt P13922, N108S/R59C); assay: Inhibition of wild type pfDHFR (Ki); format: biochemical
# Chain of wild type (WT) pfDHFR (P13922 whole entry R59C/N108S): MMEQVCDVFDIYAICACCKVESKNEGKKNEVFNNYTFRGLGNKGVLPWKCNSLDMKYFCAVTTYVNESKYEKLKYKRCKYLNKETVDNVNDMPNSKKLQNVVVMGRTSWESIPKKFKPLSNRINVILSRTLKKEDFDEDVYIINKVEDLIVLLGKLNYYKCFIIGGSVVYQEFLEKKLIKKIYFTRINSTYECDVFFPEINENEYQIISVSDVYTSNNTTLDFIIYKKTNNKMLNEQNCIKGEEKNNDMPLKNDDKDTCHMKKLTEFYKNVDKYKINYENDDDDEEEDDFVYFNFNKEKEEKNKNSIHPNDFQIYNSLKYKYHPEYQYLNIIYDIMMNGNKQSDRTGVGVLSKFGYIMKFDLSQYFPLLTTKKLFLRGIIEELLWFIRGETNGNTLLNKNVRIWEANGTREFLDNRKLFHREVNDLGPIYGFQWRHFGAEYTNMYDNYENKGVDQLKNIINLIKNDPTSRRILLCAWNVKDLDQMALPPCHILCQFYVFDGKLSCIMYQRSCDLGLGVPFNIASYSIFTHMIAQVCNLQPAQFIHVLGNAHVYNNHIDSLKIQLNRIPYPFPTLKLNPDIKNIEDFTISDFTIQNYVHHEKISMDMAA
# Protocol: as §2
# Vero cells = assay: in vitro; details: read-out: Cytotoxicity against Vero cells (IC50); Vero cells
# Source text: as §1
# [5] = Plasmodium falciparum, in vitro, wild-type strain TM4/8.2
smiles,measurement,setting,value
"CCc1nc(N)nc(N)c1-c1cn(-c2cccc(C(=O)O)c2)nn1.Cl [Compound 2, 2,4-diamino-6-ethyl-5-(1-(3-(carboxy)phenyl)-1H-1,2,3-triazol-4-yl)pyrimidine Hydrochloride]",IC50,[1]; Plasmodium falciparum,> 10000 nM
same,IC50,[2]; [5],> 10000 nM
same,Ki,[3],6650 ± 409 nM
same,Ki,[4],> 100000 nM
same,IC50,in vitro,> 10000 nM
same,melting point,,205 to 207 °C
same,Ki,wild type (WT) pfDHFR,1030 ± 89.3 nM
"CCc1nc(N)nc(N)c1OCc1cn(-c2cccc(C(=O)O)c2)nn1.Cl [Compound 16, 2,4-diamino-6-ethyl-5-((1-(3-(carboxy)phenyl)-1H-1,2,3-triazol-4-yl)methoxy)pyrimidine Hydrochloride]",IC50,[1]; Plasmodium falciparum,> 25000 nM
same,IC50,[2]; [5],600 ± 240 nM
same,Ki,[3],6.18 ± 0.6 nM
same,Ki,[4],817 ± 145 nM
same,IC50,in vitro,> 25000 nM
same,melting point,,197.5 to 199.5 °C
same,Ki,wild type (WT) pfDHFR,0.27 ± 0.03 nM
"CCc1nc(N)nc(N)c1OCCCc1cc(-c2cccc(C(=O)O)c2)no1.Cl [Compound 49, 2,4-diamino-6-ethyl-5-(3-(3-(3-(carboxy)phenyl)isoxazol-5-yl)propoxy)pyrimidine Hydrochloride]",IC50,[1]; Plasmodium falciparum,130 ± 40 nM
same,IC50,[2]; [5],7 ± 1.5 nM
same,Ki,[3],0.29 ± 0.01 nM
same,Ki,[4],12.6 ± 1.43 nM
same,IC50,in vitro,> 100000 nM
same,melting point,,219 to 220.5 °C
same,Ki,wild type (WT) pfDHFR,0.19 ± 0.02 nM
"CCc1nc(N)nc(N)c1OCc1csc(-c2cccc(C(=O)O)c2)n1.Cl [Compound 66, 2,4-diamino-6-ethyl-5-((2-(3-(carboxy)phenyl)thiazol-4-yl)methoxy)pyrimidine Hydrochloride]",IC50,[1]; Plasmodium falciparum,> 10000 nM
same,IC50,[2]; [5],2170 ± 540 nM
same,Ki,[3],36.7 ± 4.79 nM
same,Ki,[4],102 ± 5.26 nM
same,IC50,in vitro,> 10000 nM
same,melting point,,217.5 to 219 °C
same,Ki,wild type (WT) pfDHFR,0.86 ± 0.1 nM
"CCc1nc(N)nc(N)c1OCCCOc1ccccc1CCC(=O)O [Compound P218, reference compound]",IC50,[1],56 ± 20 nM
same,IC50,[2],4.6 ± 1.9 nM
same,Ki,[4],17.4 ± 3.8 nM
same,IC50,Vero cells,> 10000 nM
